Results published in patent US6294650A, “Inhibition of mammalian telomerase by peptide nucleic acids” (The Board of Regents, University of Texas System, priority 1999, dated 2001).

How the values were obtained:
human telomerase [1] = test: TRAP assay of telomerase activity in HME50-5 cell extracts preincubated with PNA or PS oligomer; type: biochemical
Experimental: Cells were derived from a human immortal primary breast epithelial cell line (HME50-5) that expresses telomerase at high levels. Cell extracts were obtained by resuspending a 100,000 cell pellet into 200 μl of lysis buffer (0.5% 3-[3-cholamidopropyl-dimethylammonio]-1-propane-sulfonate (CHAPS), 10 mM Tris-HCl, pH 7.5, 1 mM ethylenebis(oxyethylene-nitrilo)tetraacetic acid (EGTA), 5 mM β-mercaptoethanol, 0.1 mM 4-(2-aminoethyl)benzenesulfonyl fluoride (AEBSF), 10% glycerol). The suspension was mixed by pipetting at least three times and kept on ice for 30 minutes. The lysate was centrifuged at 16,000×g for 20 minutes at 4° C., and 160 μl of the supernatant was collected. The cells were then diluted 10-fold to obtain a 50 cell equivalent/μl stock suspension, aliquoted, frozen in liquid nitrogen, and stored at -80° C. These aliquots were utilized throughout our experiments to ensure consistency.
The tubes were transferred to a PCR thermocycler set at 94° C. for 3 minutes to melt the wax barrier, cycled 30 times (30 seconds at 95° C., 30 seconds at 55° C. and 30 seconds at 72° C.) followed by a 3 minute extension at 72° C. The samples were frozen at -80° C. and the wax barrier removed. […] Gels were fixed for 30 minutes (1:1 ethanol: water, 0.5 M NaCl, 40 mM NaOAc, pH 4.2) then exposed to a phosphorimager screen for quantitation. […] Data was processed using ImageQuant software version 3.3.
Varied concentrations of PNA were added to cell extracts containing the TS primer. Telomerase products were visualized by gel electrophoresis and the extent of inhibition was quantified by phosphorimager analysis by evaluating each lane of the gels separately. The lanes were further separated into two areas for evaluation; one for the internal amplification standard (ITAS) and the other for all telomerase products. […] This ratio was taken to indicate telomerase activity with the ratio of the positive control being assigned 100% activity. The extent of inhibition as a function of the concentration of the added PNA was plotted and these graphs were utilized to derive the IC50.
Telomerase activity was measured using the telomeric repeat amplification protocol (TRAP). Rather than measure the change in chromosome length over time, a process that requires weeks to produce definitive results and measures telomerase activity only indirectly, the TRAP assay measures the elongation of a short oligonucleotide primer (TS primer) known to act as an efficient substrate of telomerase. Cell extracts from a human immortal breast epithelial cell line, HME50-5, expressing telomerase were preincubated with PNAs to allow recognition of complementary sequences by Watson-Crick base-pairing. The TS primer was then added to initiate chain elongation by telomerase. Following elongation of the TS primer, the mixture was transferred to a thermocycler and polymerase chain reaction (PCR) was performed to amplify the products. Two potential template DNAs were present, and amplification products were primed from either an internal amplification standard (ITAS) or from the product of telomerase elongation of the TS primer. These amplification products were separated by gel electrophoresis and quantitated separately. A ratio of the amount of amplified products of telomerase activity to that derived from amplification of the ITAS standard was determined and compared to a positive control to which no PNA was added. This comparison allowed calculation of the inhibition of telomerase activity due to a given concentration of PNA.

human telomerase [2] = test: TRAP assay of telomerase activity in permeabilized HME50-5 cells; type: cell-based; details: 37° C., read-out: IC50 (nM) Perm. Cells 37° C.
Experimental: To examine the ability of PNAs to inhibit telomerase activity within permeabilized cells HME50-5 cells were treated with a buffered solution containing a relatively low concentration of detergent (20 mM Tris-HCl, pH 8.3, 1.5 mM MgCl2, 68 mM KCl, 0.5% Tween 20, 1 mM EGTA, 5.0% glycerol, and 0.1 mM AEBSF). The telomerase activity in these cells was not further purified, and permeabilized cells were incubated with PNA and PS oligomers prior to assay for telomerase activity.
A further control experiment was performed to ensure that the observed. inhibition was due to PNA entry into permeabilized cells The TRAP assay was utilized to compare the level of telomerase activity retained inside permeabilized cells to activity which leaks into solution. This control was necessary to ensure that the observed inhibition was due to PNA inhibition of telomerase within cells. Permeabilized cells were centrifuged and the cell pellet and the cell-free supernatant were separately examined for telomere activity using the TRAP assay. Greater than 80% of telomerase activity remained associated with the cell pellet after this mild treatment, confirming that telomerase is largely retained inside permeabilized cells.
Telomerase activity was determined using the telomere repeat amplification protocol (TRAP) assay essentially as described (Piatyszek et al. (1995) Methods in Cell Science 17: 1) with the modification that the cellular extract was preincubated at 25° C. for 30 minutes with the PNA at the concentrations indicated. Following preincubation 3 μl of the cellular extract plus PNA was added to a PCR tube containing 46 μl of reaction buffer (20 mM Tris-HCl, pH 8.3, 1.5 MM MgCl2, 68 MM KCl, 0.05% Tween-20, 1 mM EGTA), 50 μM dNTPs, 0.1 μg TS primer (5'-[…]-3' (SEQ ID NO:23)), 5 attg ITAS template (25), 0.5 μM T4 gene 32 protein, 2 Units Taq polymerase, 4 μCi^32 P-α dCTP) above a wax barrier separating 0.1 μg of the CX, reverse primer (5'-[…]-3' (SEQ ID NO:24)), and incubated for 30 minutes to allow telomerase to elongate the TS primer. The tubes were transferred to a PCR thermocycler set at 94° C. for 3 minutes to melt the wax barrier, cycled 30 times (30 seconds at 95° C., 30 seconds at 55° C. and 30 seconds at 72° C.) followed by a 3 minute extension at 72° C. The samples were frozen at -80° C. and the wax barrier removed. The solution containing the PCR products (40 μl) was added to 3.3 μl of loading buffer and 20 μl was loaded onto a 10% non-denaturing polyacrylamide gel and separated by electrophoresis at 180 volts for 45 minutes followed by 280 volts for 1 hour and 45 minutes. Gels were fixed for 30 minutes (1:1 ethanol: water, 0.5 M NaCl, 40 mM NaOAc, pH 4.2) then exposed to a phosphorimager screen for quantitation. Phosphorimager analysis was performed utilizing a Molecular Dynamics model 425F phosphorimager. Data was processed using ImageQuant software version 3.3.
Varied concentrations of PNA were added to cell extracts containing the TS primer. Telomerase products were visualized by gel electrophoresis and the extent of inhibition was quantified by phosphorimager analysis by evaluating each lane of the gels separately. The lanes were further separated into two areas for evaluation; one for the internal amplification standard (ITAS) and the other for all telomerase products. A ratio of telomerase products to ITAS was determined and compared to a positive control in which no PNA had been added. This ratio was taken to indicate telomerase activity with the ratio of the positive control being assigned 100% activity. The extent of inhibition as a function of the concentration of the added PNA was plotted and these graphs were utilized to derive the IC50.
The potential for such interactions to interfere with the location of hTR by PNAs was evaluated by examining elongation under conditions more similar to those in vivo. PNAs were applied to HME50-5 cells that had been mildly permeabilized. […]

[3] = HME50-5 cell extract, 25° C., 30 min preincubation, read-out: IC50 (nM) Cell Extract 25° C.
[4] = HME50-5 cell extract, 37° C., read-out: IC50 (nM) Cell Extract 37° C.

Substance	IC50 (human telomerase [1]; [3]) [nM]	IC50 (human telomerase [1]; [4]) [nM]	IC50 (human telomerase [2]) [nM]	also measured
PNA (III): complementary PNA, sequence TTAGGGTTAG (all peptide nucleic acid (PNA))	200	400	500	IC50 (human telomerase [1]; cell extract, 30 min preincubation, read-out: IC50 for inhibition of telomerase): 200 nM
PNA (IV): complementary PNA, sequence GTTAGGGTTAG (all peptide nucleic acid (PNA))			300	
PNA (IX): complementary PNA, sequence TAGGGTTAGAC (all peptide nucleic acid (PNA))	10			IC50 (human telomerase [1]; HME50-5 cell extract, 25° C., 30 min preincubation, listed as PNA IX, read-out: IC50 (nM) Cell Extract 25° C.): ~10 nM
PNA (V): complementary PNA, sequence AGTTAGGGTTAG (all peptide nucleic acid (PNA))	10	75	370	
PNA (VI): complementary PNA, sequence CAGTTAGGGTTAG (all peptide nucleic acid (PNA))	10	50	75	
PNA (VII): complementary PNA, sequence CTCAGTTAGGGTTAG (all peptide nucleic acid (PNA))		70		
PNA (VIII): complementary PNA, sequence CCCTTCTCAGTTAGGGTTAG (all peptide nucleic acid (PNA))	200	300	400	
PNA (X): complementary PNA, sequence GTTAGGGTTAGAC (antisense; all peptide nucleic acid (PNA))	10			IC50 (human telomerase [1]; HME50-5 cell extract, 25° C., 30 min preincubation, listed as PNA X, read-out: IC50 (nM) Cell Extract 25° C.): ~10 nM
PNA (XI): complementary PNA, sequence GGGTTAGACAA (all peptide nucleic acid (PNA))	10	50	70	IC50 (human telomerase [1]; HME50-5 cell extract, 25° C., 30 min preincubation, listed as PNA XI, read-out: IC50 (nM) Cell Extract 25° C.): ~10 nM
PNA (XII): complementary PNA, sequence TAGGGTTAGACAA (all peptide nucleic acid (PNA))	0.9			preincubation time to reach maximal inhibition (human telomerase [1]; 300 pM PNA): ninety; preincubation time to reach maximal inhibition (human telomerase [1]; 200 nM PNA): five; reversibility of inhibition once maximal inhibition attained (human telomerase [1]; lengthy incubation with primer and nucleotides): effectively irreversible
PNA (XIII): complementary PNA, sequence GTTAGGGTTAGACAA (all peptide nucleic acid (PNA))		50		
PNA (XIV): non-complementary PNA, sequence AGGATCTTCACCTAGATCCT (all peptide nucleic acid (PNA)) [reference compound]	> 33000	> 33000		inhibition of human telomerase activity (in words) (human telomerase [1]; cell extract): did not detectably inhibit
PNA (XV): non-complementary PNA, sequence TGTAAGGAACTAG (all peptide nucleic acid (PNA)) [reference compound]	> 33000	> 33000		inhibition of human telomerase activity (in words) (human telomerase [1]; cell extract): did not detectably inhibit
PS (I): complementary phosphorothioate oligonucleotide 5'-GTTAGGGTTAG-3' (all phosphorothioate, sugars by position not given here) [reference compound]	75	250		
PS (II): complementary phosphorothioate oligonucleotide CTCAGTTAGGGTTAG (all phosphorothioate, sugars by position and methylation of C not given here) [reference compound]	100	700		
PS (III): complementary phosphorothioate oligonucleotide TAGGGTTAGACAA (all phosphorothioate, sugars by position and methylation of C not given here) [reference compound]	50	200		
PS (IV): non-complementary phosphorothioate oligonucleotide AGGATCTTCACCTAGATCCT (all phosphorothioate, sugars by position and methylation of C not given here) [reference compound]	100	400		
PS (V): non-complementary phosphorothioate oligonucleotide TGTAAGGAACTAG (all phosphorothioate, sugars by position and methylation of C not given here) [reference compound]	100	450		
